Results taken from US10294202B2, “Pyrrolidinones as herbicides” (FMC Corporation, priority 2013, dated 2019).

Experiments:
Test in all cases: Test D pre-/postemergence herbicide test
buckwheat, wild = assay type: in vivo, Polygonum convolvulus; conditions: for Plant response rating: Buckwheat, Wild, scale 0 to 100; for Plant response rating, Buckwheat, Wild: scale 0 to 100 (0 no effect, 100 complete control)
Text: (§1) Seeds of plant species selected from bluegrass (annual bluegrass, Poa annua), blackgrass (Alopecurus myosuroides), canarygrass (littleseed canarygrass, Phalaris minor), chickweed (common chickweed, Stellaria media), galium (catchweed bedstraw, Galium aparine), bromegrass, downy (downy bromegrass, Bromus tectorum), field poppy (Papaver rhoeas), field violet (Viola arvensis), foxtail, green (green foxtail, Setaria viridis), deadnettle (henbit deadnettle, Lamium amplexicaule), ryegrass, Italian (Italian ryegrass, Lolium multiflorum), kochia (Kochia scoparia), lambsquarters (Chenopodium album), oilseed rape (Brassica napus), pigweed (Amaranthus retroflexus), chamomile (scentless chamomile, Matricaria inodora), Russian thistle (Salsola kali), speedwell (bird's-eye speedwell, Veronica persica), barley, spring (spring barley, Hordeum vulgare), wheat, spring (spring wheat, Triticum aestivum), buckwheat, wild (wild buckwheat, Polygonum convolvulus), mustard, wild (wild mustard, Sinapis arvensis), oat, wild (wild oat, Avena fatua), radish, wild (wild radish, Raphanus raphanistrum), […]), barley, winter (winter barley, Hordeum vulgare), and wheat, winter (winter wheat, Triticum aestivum) were planted into a silt loam soil and treated preemergence with test chemicals formulated in a non-phytotoxic solvent mixture which included a surfactant. At the same time, these species were planted in pots containing Redi-Earth® planting medium (Scotts Company, 14111 Scottslawn Road, Marysville, Ohio 43041) comprising spaghnum peat moss, vermiculite, wetting agent and starter nutrients and treated with postemergence applications of the test chemicals formulated in the same manner. Plants ranged in height from 2 to 18 cm (1- to 4-leaf stage). Treated plants and controls were maintained in a controlled growth environment for 7 to 21 days after which time all species were compared to controls and visually evaluated. Plant response ratings, summarized in Table D, are based on a scale of 0 to 100 where 0 is no effect and 100 is complete control. A dash (-) response means no test result.

wheat, winter = assay type: in vivo, Triticum aestivum; conditions: for Plant response rating: Postemergence, Wheat, Winter, scale 0 to 100; for Plant response rating, Wheat, Winter: Preemergence, scale 0 to 100 (0 no effect, 100 complete control)
Text: as §1

wheat, spring = assay type: in vivo, Triticum aestivum; conditions: for Plant response rating: Postemergence, Wheat, Spring, scale 0 to 100; for Plant response rating, Wheat, Spring: Preemergence, scale 0 to 100 (0 no effect, 100 complete control)
Text: as §1

lambsquarters = assay type: in vivo, Chenopodium album; conditions: for Plant response rating: Lambsquarters, scale 0 to 100; for Plant response rating, Lambsquarters: scale 0 to 100 (0 no effect, 100 complete control)
Text: as §1

canarygrass = assay type: in vivo, Phalaris minor; conditions: for Plant response rating: Canarygrass, scale 0 to 100; for Plant response rating, Canarygrass: scale 0 to 100 (0 no effect, 100 complete control)
Text: as §1

O=C1NCC(c2ccc(F)c(F)c2)C1C(=O)Nc1cccc(F)c1 (racemic) [Compound 12]
Plant response rating (buckwheat, wild; Postemergence, 16 g ai/ha): 0 | Plant response rating (buckwheat, wild; Postemergence, 31 g ai/ha): 0 | Plant response rating (buckwheat, wild; Postemergence, 62 g ai/ha): 10 | Plant response rating (buckwheat, wild; Postemergence, 125 g ai/ha): 10 | Plant response rating (buckwheat, wild; Postemergence, 250 g ai/ha): 10 | Plant response rating, Buckwheat, Wild (buckwheat, wild; Preemergence, 31 g ai/ha): 0 | Plant response rating, Buckwheat, Wild (buckwheat, wild; Preemergence, 62 g ai/ha): 0 | Plant response rating, Buckwheat, Wild (buckwheat, wild; Preemergence, 16 g ai/ha): 0 | Plant response rating (buckwheat, wild; Preemergence, 125 g ai/ha): 0 | Plant response rating (buckwheat, wild; Preemergence, 250 g ai/ha): 100 | Plant response rating (wheat, winter; 16 g ai/ha): 0 | Plant response rating (wheat, winter; 31 g ai/ha): 0 | Plant response rating (wheat, winter; 62 g ai/ha): 0 | Plant response rating (wheat, winter; 125 g ai/ha): 0 | Plant response rating (wheat, winter; 250 g ai/ha): 0 | Plant response rating, Wheat, Winter (wheat, winter; 31 g ai/ha): 0 | Plant response rating, Wheat, Winter (wheat, winter; 62 g ai/ha): 0 | Plant response rating, Wheat, Winter (wheat, winter; 125 g ai/ha): 0 | Plant response rating, Wheat, Winter (wheat, winter; 250 g ai/ha): 0 | Plant response rating, Wheat, Winter (wheat, winter; 16 g ai/ha): 0 | Plant response rating (wheat, spring; 16 g ai/ha): 0 | Plant response rating (wheat, spring; 31 g ai/ha): 0 | Plant response rating (wheat, spring; 62 g ai/ha): 0 | Plant response rating (wheat, spring; 125 g ai/ha): 0 | Plant response rating (wheat, spring; 250 g ai/ha): 0 | Plant response rating, Wheat, Spring (wheat, spring; 31 g ai/ha): 0 | Plant response rating, Wheat, Spring (wheat, spring; 62 g ai/ha): 0 | Plant response rating, Wheat, Spring (wheat, spring; 125 g ai/ha): 0 | Plant response rating, Wheat, Spring (wheat, spring; 250 g ai/ha): 0 | Plant response rating, Wheat, Spring (wheat, spring; 16 g ai/ha): 0 | Plant response rating (lambsquarters; Postemergence, 16 g ai/ha): 0 | Plant response rating (lambsquarters; Postemergence, 31 g ai/ha): 0 | Plant response rating (lambsquarters; Postemergence, 62 g ai/ha): 10 | Plant response rating (lambsquarters; Postemergence, 125 g ai/ha): 10 | Plant response rating (lambsquarters; Postemergence, 250 g ai/ha): 25 | Plant response rating, Lambsquarters (lambsquarters; Preemergence, 31 g ai/ha): 0 | Plant response rating, Lambsquarters (lambsquarters; Preemergence, 62 g ai/ha): 0 | Plant response rating, Lambsquarters (lambsquarters; Preemergence, 16 g ai/ha): 0 | Plant response rating (lambsquarters; Preemergence, 125 g ai/ha): 30 | Plant response rating (lambsquarters; Preemergence, 250 g ai/ha): 30 | Plant response rating (canarygrass; Postemergence, 16 g ai/ha): 0 | Plant response rating (canarygrass; Postemergence, 31 g ai/ha): 0 | Plant response rating (canarygrass; Postemergence, 62 g ai/ha): 15 | Plant response rating (canarygrass; Postemergence, 125 g ai/ha): 15 | Plant response rating (canarygrass; Postemergence, 250 g ai/ha): 30 | Plant response rating, Canarygrass (canarygrass; Preemergence, 31 g ai/ha): 0 | Plant response rating, Canarygrass (canarygrass; Preemergence, 62 g ai/ha): 0 | Plant response rating, Canarygrass (canarygrass; Preemergence, 16 g ai/ha): 0 | Plant response rating (canarygrass; Preemergence, 125 g ai/ha): 20 | Plant response rating (canarygrass; Preemergence, 250 g ai/ha): 40

O=C1NCC(c2cc(F)c(F)c(F)c2)C1C(=O)Nc1ccccc1C(F)(F)F (racemic) [Compound 33]
Plant response rating (buckwheat, wild; Postemergence, 16 g ai/ha): 0 | Plant response rating (buckwheat, wild; Postemergence, 31 g ai/ha): 0 | Plant response rating (buckwheat, wild; Postemergence, 62 g ai/ha): 0 | Plant response rating (buckwheat, wild; Postemergence, 125 g ai/ha): 0 | Plant response rating (buckwheat, wild; Postemergence, 250 g ai/ha): 10 | Plant response rating (wheat, winter; 16 g ai/ha): 0 | Plant response rating (wheat, winter; 31 g ai/ha): 0 | Plant response rating (wheat, winter; 62 g ai/ha): 0 | Plant response rating (wheat, winter; 125 g ai/ha): 0 | Plant response rating (wheat, winter; 250 g ai/ha): 0 | Plant response rating (wheat, spring; 16 g ai/ha): 0 | Plant response rating (wheat, spring; 31 g ai/ha): 0 | Plant response rating (wheat, spring; 62 g ai/ha): 0 | Plant response rating (wheat, spring; 125 g ai/ha): 0 | Plant response rating (wheat, spring; 250 g ai/ha): 0 | Plant response rating (lambsquarters; Postemergence, 16 g ai/ha): 0 | Plant response rating (lambsquarters; Postemergence, 31 g ai/ha): 0 | Plant response rating (lambsquarters; Postemergence, 62 g ai/ha): 0 | Plant response rating (lambsquarters; Postemergence, 125 g ai/ha): 0 | Plant response rating (lambsquarters; Postemergence, 250 g ai/ha): 20 | Plant response rating (canarygrass; Postemergence, 16 g ai/ha): 0 | Plant response rating (canarygrass; Postemergence, 31 g ai/ha): 0 | Plant response rating (canarygrass; Postemergence, 62 g ai/ha): 0 | Plant response rating (canarygrass; Postemergence, 125 g ai/ha): 0 | Plant response rating (canarygrass; Postemergence, 250 g ai/ha): 0

O=C1NCC(c2cc(F)c(F)c(F)c2)C1C(=O)Nc1ccccc1F (racemic) [Compound 34]
Plant response rating (buckwheat, wild; Postemergence, 16 g ai/ha): 0 | Plant response rating (buckwheat, wild; Postemergence, 31 g ai/ha): 0 | Plant response rating (buckwheat, wild; Postemergence, 62 g ai/ha): 0 | Plant response rating (buckwheat, wild; Postemergence, 125 g ai/ha): 0 | Plant response rating (buckwheat, wild; Postemergence, 250 g ai/ha): 0 | Plant response rating (wheat, winter; 16 g ai/ha): 0 | Plant response rating (wheat, winter; 31 g ai/ha): 0 | Plant response rating (wheat, winter; 62 g ai/ha): 0 | Plant response rating (wheat, winter; 125 g ai/ha): 0 | Plant response rating (wheat, winter; 250 g ai/ha): 0 | Plant response rating (wheat, spring; 16 g ai/ha): 0 | Plant response rating (wheat, spring; 31 g ai/ha): 0 | Plant response rating (wheat, spring; 62 g ai/ha): 0 | Plant response rating (wheat, spring; 125 g ai/ha): 0 | Plant response rating (wheat, spring; 250 g ai/ha): 0 | Plant response rating (lambsquarters; Postemergence, 16 g ai/ha): 0 | Plant response rating (lambsquarters; Postemergence, 31 g ai/ha): 0 | Plant response rating (lambsquarters; Postemergence, 62 g ai/ha): 0 | Plant response rating (lambsquarters; Postemergence, 125 g ai/ha): 0 | Plant response rating (lambsquarters; Postemergence, 250 g ai/ha): 20 | Plant response rating (canarygrass; Postemergence, 16 g ai/ha): 0 | Plant response rating (canarygrass; Postemergence, 31 g ai/ha): 0 | Plant response rating (canarygrass; Postemergence, 62 g ai/ha): 0 | Plant response rating (canarygrass; Postemergence, 125 g ai/ha): 0 | Plant response rating (canarygrass; Postemergence, 250 g ai/ha): 0

O=C1NCC(c2cccc(C(F)(F)F)c2)C1C(=O)Nc1ccc(F)cc1F (racemic) [Compound 207]
Plant response rating, Buckwheat, Wild (buckwheat, wild; Preemergence, 31 g ai/ha): 0 | Plant response rating, Buckwheat, Wild (buckwheat, wild; Preemergence, 62 g ai/ha): 15 | Plant response rating, Buckwheat, Wild (buckwheat, wild; Preemergence, 125 g ai/ha): 25 | Plant response rating (buckwheat, wild; Preemergence, 250 g ai/ha): 35 | Plant response rating, Wheat, Winter (wheat, winter; 31 g ai/ha): 0 | Plant response rating, Wheat, Winter (wheat, winter; 62 g ai/ha): 15 | Plant response rating, Wheat, Winter (wheat, winter; 125 g ai/ha): 10 | Plant response rating, Wheat, Winter (wheat, winter; 250 g ai/ha): 20 | Plant response rating, Wheat, Spring (wheat, spring; 31 g ai/ha): 5 | Plant response rating, Wheat, Spring (wheat, spring; 62 g ai/ha): 10 | Plant response rating, Wheat, Spring (wheat, spring; 125 g ai/ha): 10 | Plant response rating, Wheat, Spring (wheat, spring; 250 g ai/ha): 10 | Plant response rating, Lambsquarters (lambsquarters; Preemergence, 31 g ai/ha): 0 | Plant response rating, Lambsquarters (lambsquarters; Preemergence, 62 g ai/ha): 30 | Plant response rating, Lambsquarters (lambsquarters; Preemergence, 125 g ai/ha): 65 | Plant response rating (lambsquarters; Preemergence, 250 g ai/ha): 90 | Plant response rating, Canarygrass (canarygrass; Preemergence, 31 g ai/ha): 0 | Plant response rating, Canarygrass (canarygrass; Preemergence, 62 g ai/ha): 5 | Plant response rating, Canarygrass (canarygrass; Preemergence, 125 g ai/ha): 0 | Plant response rating (canarygrass; Preemergence, 250 g ai/ha): 75
